Results taken from PubChem BioAssay (NCI).
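These data come from cells grown in 96-well plates and exposed to compound for 48 hours at five concentrations. Abbreviation: GI50, concentration required for 50% inhibition of growth. TGI denotes the concentration required for complete inhibition of growth.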

Tests used:
Test in all cases: DTP human tumour cell line panel, 48 h
RPMI-8226 leukemia = tested on: RPMI-8226 leukemia
RXF 393 renal = tested on: RXF 393 renal
OVCAR-5 ovarian = tested on: OVCAR-5 ovarian
UACC-257 melanoma = tested on: UACC-257 melanoma
SW-620 colon = tested on: SW-620 colon
NCI/ADR-RES ovarian = tested on: NCI/ADR-RES ovarian
PC-3 prostate = tested on: PC-3 prostate
NCI-H226 lung = tested on: NCI-H226 lung
OVCAR-8 ovarian = tested on: OVCAR-8 ovarian
786-0 renal = tested on: 786-0 renal

SMILES	GI50 (RPMI-8226 leukemia) [µM]	TGI (RPMI-8226 leukemia) [µM]	GI50 (RXF 393 renal) [µM]	TGI (RXF 393 renal) [µM]	GI50 (OVCAR-5 ovarian) [µM]	TGI (OVCAR-5 ovarian) [µM]	GI50 (UACC-257 melanoma) [µM]	TGI (UACC-257 melanoma) [µM]	GI50 (SW-620 colon) [µM]	TGI (SW-620 colon) [µM]	GI50 (NCI/ADR-RES ovarian) [µM]	TGI (NCI/ADR-RES ovarian) [µM]	GI50 (PC-3 prostate) [µM]	TGI (PC-3 prostate) [µM]	GI50 (NCI-H226 lung) [µM]	TGI (NCI-H226 lung) [µM]	GI50 (OVCAR-8 ovarian) [µM]	TGI (OVCAR-8 ovarian) [µM]	GI50 (786-0 renal) [µM]	TGI (786-0 renal) [µM]
O=C(N/N=C/c1ccc(O)cc1O)c1cccnc1	4.13	> 100	3.74	> 100	14	> 100	3.33	22.5	4.34	> 100	3.26	> 100	4.14	46.9	4.58	84.3	2.5	96.3	4.28	> 100
O=C(CCN1CCOCC1)Nc1cccc(-n2cc(-c3ccncc3)c(-c3ccc(Cl)c(O)c3)n2)c1	2.8	15.1	1.39	4.66	4.07	18.4	1.9	4.42	1.56	12.6	2.29	> 100	1.74	12.9	4.98	21.4	3.71	57.5	1.9	4.75
Cn1cc(-c2csc(-c3cn(C)c4ccc(F)cc34)n2)c2cnccc21	1.98	4.14	1.61	3.05	1.68	3.15	1.8	3.26	1.88	3.59	2.03	4.02	1.71	3.31	2.05	4.26	2.02	3.93	1.51	2.96
O=C1c2ccccc2C(=O)c2c(NCCN=Cc3ccccc3O)cccc21	0.714	2.62	2.18	6.94	14.2	99.3	4.84	13.4	2.14	7.07	10.5	> 100	2.18	8.1	7.97	> 38.2	4.93	22.1	6.8	37.9
c1ccc(NCCSc2nc3ccccc3s2)cc1		> 100		> 100		> 100		77		> 100		> 100		> 100				> 100		> 100
COc1ccc(-c2ccc(NNC(=O)c3ccc(F)cc3)nn2)cc1OC	35.3	> 100	63	> 100	> 100	> 100	> 100	> 100	> 100	> 100	43.2	> 100	50.5	> 100	71.8	> 100			> 100	> 100
c1ccc2c(c1)c1ccccc1c1ccccc21	> 100	> 100	> 100	> 100	> 100	> 100	> 100	> 100	> 100	> 100	> 100	> 100	> 100	> 100	> 100	> 100	> 100	> 100	> 100	> 100
CN1C(NNC(=O)c2cccnc2)=NS(=O)(=O)c2cc(Cl)ccc21	> 100	> 100	> 100	> 100	> 100	> 100	> 100	> 100	> 100	> 100	> 100	> 100	> 100	> 100	> 100	> 100	> 100	> 100	> 100	> 100
NC(=O)CNc1ccc([As]=[As]c2ccc(NCC(N)=O)cc2)cc1 (configuration not stated)	2.61	10.8	3.04	16.4	4.42	20.2	12.4	39.6	2.54	15.4	9.13	> 100	2.7	22.7	5.62	22.8	4.65	> 100	3.21	14.3
N#CC(C#N)=C1CCCOc2c1ccc1ccccc21	24.5	65.1	> 100	> 100	> 100	> 100			> 100	> 100	> 100	> 100	39.8	> 100			> 100	> 100	88.2	> 100
CN(C)CCNc1nc2ccccc2c2c(=O)c3cc(F)ccc3sc12	2.3	5.18	1.45	2.83	1.58	2.95	2.12	4.16	1.67	3.23	1.63	3.06	1.7	3.37	1.61	3.14			1.47	2.91
COc1ccc2c(c1)C(C)Cc1c(ncnc1-n1cnc3ccccc31)N2C (configuration not stated)	0.556	27.6			6.21	43.9	13.6	26.6	0.379	17.8	0.395	> 100	0.409	17.5	12.4	27.7	0.959	87.4	0.591	19.6
CS(=O)(=O)CS(=O)(=O)OCCCl		3170		611		1260		808		1100		1960		990		785		1270		514
COc1ccc(-c2noc(N)c2-c2cc(OC)c3c(c2)OCO3)cc1	3.25	> 49.9	2.6	15	5.63	> 82.2	5.87	> 100	0.677	> 100	0.721		3.36	> 100	18	> 100	3.98	> 100	8.36	> 100
Nc1c(C(=O)Nc2ccccc2Cl)sc2nc3c(cc12)C(=O)CCC3	> 100	> 100	2.37	> 28.7	> 100	> 100	1.62	> 100	0.556	> 100	5.34	> 100	1.16	> 100	14.6	> 100	> 25	> 100	37.7	> 100
COC(=O)[C@]12CC[C@@H](C)[C@H](C)[C@@H]1C1=CC[C@@H]3[C@@]4(C)C(C=O)=C[C@@](C)(COC(=O)c5ccco5)[C@@H]4[C@H](O)C[C@@]3(C)[C@]1(C)CC2	1.76	6.7			3	9.72	0.263	0.997	2.86	8.32	2.76	12	1.29	7.55	1.94	4.14	2.9	13.4	2.4	7.13
Cc1c2c(C(N)=O)nccc2c(C)c2c1c1ccccc1n2Cc1ccccc1		61.2		31.9		> 100		> 100		50		27.9		27.7		69.6		31.3		15.9
COc1ccc(-c2cc(Nc3ccnc(N4CCOCC4)n3)on2)cc1	0.416	18.6	0.16	0.564	0.684	20.8	1.48	11.4	0.0914	18.5	0.143	5.76	0.241	24.2	0.751	9.82	0.443	11.4	0.376	8.4
Clc1nc(Cl)c2ncn(Cc3ccccc3Cn3cnc4c(Cl)nc(Cl)nc43)c2n1			1.36	3.29	5.09	10.4	9.62	25.4	1.67	3.33	7.04	17.2	2.04	5.53	2.76	7.16	2.9	9.12	4.47	9.57
COc1cc(/C=C/C(=O)C(C(=O)/C=C/c2ccc(OC(=O)CCNC34CC5CC(CC(C5)C3)C4)c(OC)c2)C(=O)CCNC23CC4CC(CC(C4)C2)C3)ccc1OC(=O)CCNC12CC3CC(CC(C3)C1)C2 (configuration not stated)	2.12	5.02	1.96	5.17	5.65	19.6	3.45	14	2.42	6.48	4.82	90.2	3.86	25.1	3.21	12.5	1.62	5.18	4.19	> 100
C=C1C(=O)OC2C1CC(OC(C)=O)/C(C)=C/CCC1(C)OC21 (configuration not stated)		> 100				> 100		> 100		> 100		> 100		> 100		> 100		> 100		> 100
CNCCn1c(=O)c2cc(OC)c(OC)cc2c2cnc3cc4c(cc3c21)OCO4	0.0254	0.915	< 0.01	0.0352	0.0259	0.304	0.0267	5.66	0.0121	1.95	0.032	1.51	0.021	1.87			< 0.01	1.34	< 0.01	0.0168
O=C(Nc1ccc(Cl)cc1)Nc1nccs1	2.63	16.6	1.49	6.53	12.8	> 100			0.4	> 100	0.575	30.1	2.79	40.3	4.46	57	3.39	> 100	11.1	> 100
NCCCOc1cc(Cl)ccc1NC(=O)c1cc2ccccc2cc1OCCCN			1.24	2.54	1.42	3.01	2.02	3.69	1.58	3.06	1.97	4.25	1.41	2.83	1.22	2.62	1.84	3.59	1.62	3.08
O=C(NNc1cnccn1)c1nc2cc(F)ccc2n2cccc12	0.518	> 100			0.828	> 100	0.515	> 100	0.397	> 100	0.461	> 44.8	0.527	> 100	1.57	> 100	0.429	> 100	0.572	> 100
COc1cc(OC)c2sc(-c3ccc(-n4cncc4-c4cc(OC)c(OC)c(OC)c4)cc3)nc2c1	5.39	> 100	2.8	> 100	> 100	> 100	> 100	> 100	5.96	> 100	5.65	> 100	2.54	> 100			> 100	> 100	7.38	> 100
COc1ccc(/C=C/c2cnccn2)cc1OC				> 10		> 10		> 10		> 10		> 10		> 10		> 10		> 10		> 10
